{"source": "patent US12233070B2", "about": "“Methods for treating benzodiazepine misuse/use disorder” (University of M[…] Center, priority 2020, dated 2025)", "key": {"[1]": {"system": "rhesus monkeys", "experiment": "Observation/sedation, focal animal behavioral scoring", "assay_type": "in vivo, rhesus monkey", "conditions": "at least one dose significantly different from vehicle; out of 22 behaviors; i.v.; N = 4 monkeys", "method": "For the data shown here, the behavior of each monkey (n=4 total) was scored using a focal animal approach as described previously (Duke et al. 2018, J Pharmacol Exp Ther 366: 145-57). Briefly, a trained observer blind to the drug treatments observed a specific monkey for 5 min and recorded each instance that a particular behavior occurred during 15-s intervals. Scores for each behavior were calculated as the number of 15-s bins in which the behavior occurred (e.g., a maximum score would be 20). For sedation measures, structured exposure to stimuli were included in the observation sessions (Duke et al., 2018). […] Specifically, the observer presented three stimuli: 1) walked at a normal pace towards the cage, 2) spoke the animal's name, and 3) moved the lock used to secure the door of the cage. […] If the monkey attended more slowly (i.e., >3 s following stimuli), the observer scored “moderate sedation”.\nThe assessment of sedation was initiated during the 5-min sampling period if the animal presented, at any time during that period, with its eyes closed for longer than 3 s. The result of this assessment was recorded for each remaining 15-sec interval of the 60-sec epoch unless eyes opened. Afterwards, eyes closing again initiated the assessment. If eyes remained closed, then the assessment was repeated at the beginning of the next 60-sec epoch 15-sec interval. Therefore, the maximum score for sedation during a 5-min period was 20 (four possible scores for 4×15-sec intervals per min, 5 min total; i.e., 4 possible scores×5 min=20). The order in which animals were observed and the observer performing the scoring each day was randomized. Four observers participated in the scoring throughout the duration of the study; each observer underwent a minimum of 20 hours of training and met an inter-observer reliability criterion of ≥90% agreement with all other observers.\nThe five-min sampling periods were repeated at multiple times following i.v. injection of TPA023B or vehicle (minutes post injection): 5, 10, 20, 40, 80, 160, 320. Scores were cumulated across the time periods, resulting in a maximum possible cumulative score of 140. TPA023B was compared with alprazolam, and the results have been published by Duke et al. (2018)."}, "[2]": {"system": "rhesus monkeys", "experiment": "Conflict model of anxiolysis (mult FR, FR+PUN)", "assay_type": "in vivo, rhesus monkey", "conditions": "i.v.; for Non-Suppressed, Mean responses/s (SEM) / Suppressed, Mean responses/s (SEM): N = 4 monkeys", "excerpt": "The conflict procedure methodology includes a two-component multiple fixed-ratio, fixed-ratio plus punishment schedule (mult FR, FR+PUN). An important feature of this model is that it is highly predictive of clinically active doses in human subjects (Rowlett et al. 2006, Psychopharmacology 184: 201-11). One component of this schedule was associated with a distinctive visual stimulus (e.g., red light) and the other component was associated with a different stimulus (e.g., green light). In each component, completion of 10 responses (FR 10) produced a food pellet followed by a brief (10 sec) timeout period. The component ended following delivery of 5 food pellets or 5 min, whichever occurred first. A 10-min timeout period occurred before each of four cycles with two components (1 red, 1 green) per cycle. When performance in both components of the multiple schedule was stable, responding in one component was suppressed by superimposing a FR schedule of response-produced electric shock. Under the superimposed schedule, every nth response (n=15-25, adjusted for each monkey depending on individual performance) produced shock. Once responding was stable (at least three sessions in which suppressed responding was less than 50% of non-suppressed responding, with no upward or downward trend in response rates in either component), investigational compounds were administered i.v. during the extended timeout periods using a cumulative dosing technique. This technique allowed determination of a four-point dose-response function in a single session.\nTable 2 summarizes data for TPA023B in the conflict procedure (n=4 monkeys, 2 females and 2 males), with alprazolam as a positive control. Average responses when vehicle was administered was 2.2 in the non-suppressed component, decreased by ˜98% by shock presentation in the suppressed component (mean=0.05 responses). For non-suppressed responding, TPA023B had no effects on mean rates of responding or percent of control over a 100-fold dose range (0.01 to 1.0 mg/kg, i.v.). […] This effect was similar to that observed with 0.03 mg/kg, i.v., of alprazolam. A striking characteristic of TPA023B in this procedure is the lack of attenuation of rates of responding at higher doses."}, "[3]": {"system": "Sprague-Dawley rats", "experiment": "Pulmonary ventilation, whole body plethysmography", "assay_type": "in vivo, rat", "conditions": "3.0 mg/kg, i.p.; N=8 rats", "method": "We first assessed the effects of TPA023B, in comparison with alprazolam, using whole body plethysmography (WBP; DSI systems). For these studies, adult male Sprague-Dawley rats (n=8) were habituated to the chambers for 30 min. The chamber was then filled with 21% oxygen, sealed, and pressure fluctuation measured for 1 min. Next, the chamber was opened and the rats were injected with alprazolam or TPA023B, i.p., and placed into the sealed chamber for a 15 min pretreatment time. The chamber was again filled with 21% oxygen, and for 1 min, fluctuating pressure amounts were recorded to obtain tidal volume (lung capacity), breaths/minute, and minute volume (lung capacity per unit time)."}, "[4]": {"design": "key to Pharmacokinetics: “poor” - low bioavailability and/or short half-life; “good” - potent with long half-life", "conditions": "in vivo; cited from earlier work"}, "[5]": {"system": "rats", "experiment": "Blockade of diazepam suppression of responding (30 min pretreatment)", "assay_type": "in vivo, rat", "conditions": "ligand 3.0 mg/kg; diazepam 30 min pretreatment; FIG. 12A; N=5", "method": "This profile is very similar to that of TPA023B despite the structural differences. […] For both compounds, we chose 3.0 mg/kg, i.p., in rats based on published literature or pilot studies in our laboratories.\nFIGS. 12A and 12B illustrate the results of acute dependency testing using these compounds."}, "[6]": {"biological_target": "α3 subunit-containing GABAA receptors (Homo sapiens, UniProt P18507+P34903)", "sequence (P34903 29-492)": "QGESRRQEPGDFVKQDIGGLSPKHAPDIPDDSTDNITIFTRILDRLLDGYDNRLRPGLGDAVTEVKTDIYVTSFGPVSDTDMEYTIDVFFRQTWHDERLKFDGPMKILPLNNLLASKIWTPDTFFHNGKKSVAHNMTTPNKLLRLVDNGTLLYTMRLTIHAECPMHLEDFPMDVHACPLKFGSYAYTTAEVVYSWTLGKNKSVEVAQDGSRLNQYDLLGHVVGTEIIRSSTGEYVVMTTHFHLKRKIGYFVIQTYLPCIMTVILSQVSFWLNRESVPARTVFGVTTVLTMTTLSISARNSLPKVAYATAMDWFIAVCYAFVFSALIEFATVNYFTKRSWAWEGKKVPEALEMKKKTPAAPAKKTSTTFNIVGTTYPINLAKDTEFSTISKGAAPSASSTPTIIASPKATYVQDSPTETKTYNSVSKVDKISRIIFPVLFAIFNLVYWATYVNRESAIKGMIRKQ", "sequence (P18507 40-475)": "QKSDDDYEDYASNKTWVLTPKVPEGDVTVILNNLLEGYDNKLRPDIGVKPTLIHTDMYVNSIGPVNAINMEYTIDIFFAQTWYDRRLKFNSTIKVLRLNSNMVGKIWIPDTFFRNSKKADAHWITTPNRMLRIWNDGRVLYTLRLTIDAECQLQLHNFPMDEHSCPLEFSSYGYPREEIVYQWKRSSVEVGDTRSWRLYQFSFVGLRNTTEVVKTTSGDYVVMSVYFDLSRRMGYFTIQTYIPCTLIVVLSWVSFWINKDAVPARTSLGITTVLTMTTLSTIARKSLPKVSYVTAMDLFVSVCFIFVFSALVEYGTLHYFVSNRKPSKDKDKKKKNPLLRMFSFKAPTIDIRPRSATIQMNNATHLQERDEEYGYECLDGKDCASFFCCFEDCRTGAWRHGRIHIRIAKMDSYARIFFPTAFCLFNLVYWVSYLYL", "sequence (P28472 26-473 partner)": "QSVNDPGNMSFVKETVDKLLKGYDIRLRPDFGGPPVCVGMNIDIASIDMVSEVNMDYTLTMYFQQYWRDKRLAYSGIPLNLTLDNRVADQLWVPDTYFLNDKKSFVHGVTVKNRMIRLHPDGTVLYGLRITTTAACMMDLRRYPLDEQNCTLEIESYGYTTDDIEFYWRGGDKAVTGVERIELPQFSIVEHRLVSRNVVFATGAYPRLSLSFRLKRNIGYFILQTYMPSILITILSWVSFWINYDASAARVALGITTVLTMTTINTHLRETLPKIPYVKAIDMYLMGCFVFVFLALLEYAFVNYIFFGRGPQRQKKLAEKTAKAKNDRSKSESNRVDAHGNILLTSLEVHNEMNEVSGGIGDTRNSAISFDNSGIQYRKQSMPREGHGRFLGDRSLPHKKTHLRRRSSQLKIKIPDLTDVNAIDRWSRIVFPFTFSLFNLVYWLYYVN", "design": "key: act as partial positive modulators for particular subtype combinations; none: zero efficacy (i.e., antagonism) at other subtypes", "conditions": "cited from earlier work"}, "[7]": {"biological_target": "α1 subunit-containing GABAA receptors (Homo sapiens, UniProt P14867+P18507)", "sequence (P14867 28-456)": "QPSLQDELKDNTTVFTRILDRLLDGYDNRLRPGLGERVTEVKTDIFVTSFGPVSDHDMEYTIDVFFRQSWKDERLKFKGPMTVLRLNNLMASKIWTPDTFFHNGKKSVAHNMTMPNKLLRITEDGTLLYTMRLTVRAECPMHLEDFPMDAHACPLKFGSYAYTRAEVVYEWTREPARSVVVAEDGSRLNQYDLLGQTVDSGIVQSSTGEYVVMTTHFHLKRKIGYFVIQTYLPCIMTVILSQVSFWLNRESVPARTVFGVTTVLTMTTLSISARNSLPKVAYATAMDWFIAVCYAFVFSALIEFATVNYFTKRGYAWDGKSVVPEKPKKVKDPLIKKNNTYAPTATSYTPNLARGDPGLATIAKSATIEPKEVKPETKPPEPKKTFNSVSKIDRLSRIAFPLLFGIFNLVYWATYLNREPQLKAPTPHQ", "sequence (P18507 40-475)": "as the sequence (P18507 40-475) above", "sequence (P28472 26-473 partner)": "as the sequence (P28472 26-473 partner) above", "design": "key to Subtype α1: act as partial positive modulators for particular subtype combinations; none: zero efficacy (i.e., antagonism) at other subtypes", "conditions": "cited from earlier work"}, "[8]": {"biological_target": "α5 subunit-containing GABAA receptors (Homo sapiens, UniProt P18507+P31644)", "sequence (P31644 32-462)": "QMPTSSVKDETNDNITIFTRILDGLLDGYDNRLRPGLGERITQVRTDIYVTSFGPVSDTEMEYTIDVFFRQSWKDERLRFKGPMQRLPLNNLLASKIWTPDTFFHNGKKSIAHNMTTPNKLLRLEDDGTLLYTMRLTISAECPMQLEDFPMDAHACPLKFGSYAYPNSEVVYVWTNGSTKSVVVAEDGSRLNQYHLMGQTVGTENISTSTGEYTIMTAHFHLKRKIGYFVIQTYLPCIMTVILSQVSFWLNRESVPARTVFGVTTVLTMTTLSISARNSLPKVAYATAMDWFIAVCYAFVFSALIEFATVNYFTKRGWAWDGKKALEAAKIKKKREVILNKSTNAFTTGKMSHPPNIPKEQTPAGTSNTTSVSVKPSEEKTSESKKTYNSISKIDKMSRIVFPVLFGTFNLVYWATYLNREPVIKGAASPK", "sequence (P18507 40-475)": "as the sequence (P18507 40-475) above", "sequence (P28472 26-473 partner)": "as the sequence (P28472 26-473 partner) above", "design": "key to Subtype α5: act as partial positive modulators for particular subtype combinations; none: zero efficacy (i.e., antagonism) at other subtypes", "conditions": "cited from earlier work"}, "[9]": {"biological_target": "α2 subunit-containing GABAA receptors (Homo sapiens, UniProt P18507+P47869)", "sequence (P47869 29-451)": "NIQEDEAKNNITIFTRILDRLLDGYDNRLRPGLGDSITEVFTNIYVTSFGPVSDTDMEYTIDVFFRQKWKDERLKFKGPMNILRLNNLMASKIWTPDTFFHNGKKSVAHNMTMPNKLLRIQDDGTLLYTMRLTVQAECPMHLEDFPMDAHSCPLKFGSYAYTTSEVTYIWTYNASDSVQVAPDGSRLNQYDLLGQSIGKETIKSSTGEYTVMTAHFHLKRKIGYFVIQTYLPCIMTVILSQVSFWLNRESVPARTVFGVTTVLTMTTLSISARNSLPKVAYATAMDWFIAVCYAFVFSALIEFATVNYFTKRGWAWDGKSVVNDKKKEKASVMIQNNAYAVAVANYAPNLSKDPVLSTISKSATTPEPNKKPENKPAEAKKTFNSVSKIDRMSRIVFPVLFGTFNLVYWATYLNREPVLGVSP", "sequence (P18507 40-475)": "as the sequence (P18507 40-475) above", "sequence (P28472 26-473 partner)": "as the sequence (P28472 26-473 partner) above", "design": "key: act as partial positive modulators for particular subtype combinations; none: zero efficacy (i.e., antagonism) at other subtypes", "conditions": "cited from earlier work"}, "[10]": {"conditions": "rhesus monkey; cited from earlier work"}, "[11]": {"system": "Sprague-Dawley rats", "experiment": "Food-maintained responding (FR 10), ligand alone", "conditions": "for effect on rates of responding: diazepam 3.0 mg/kg"}, "[12]": {"system": "Sprague-Dawley rats", "experiment": "Precipitated withdrawal/acute dependence: responding 60 min after diazepam bolus", "assay_type": "in vivo, rat", "method": "Acute dependence can occur after single exposures to the benzodiazepine chlordiazepoxide, but not to an α2/3GABAA selective ligand (Fischer et al. 2013, Psychopharmacology 227: 347-54). Here, the extent to which TPA023B can precipitate withdrawal in rats following a single, large bolus dose of diazepam was studied. […] Once rates of responding were stable, doses of diazepam, the non-selective benzodiazepine antagonist flumazenil, and TPA023B were administered prior to the session."}, "[13]": {"system": "rhesus monkeys", "experiment": "Midazolam self-administration (PR) after TPA023B pretreatment", "assay_type": "in vivo, rhesus monkey", "conditions": "midazolam alone, PR procedure", "method": "To test this, we have trained monkeys to self-administer the short-acting conventional benzodiazepine midazolam (0.056 mg/kg/injection, i.v.) in the PR procedure, as described above. During test sessions, we initially kept the training dose of midazolam constant, and administered i.v. pretreatments of TPA023B (0.003, 0.01, 0.03, 0.1, 0.3 mg/kg, of vehicle) immediately prior to the beginning of the session. A key consideration for any pharmacotherapy, as well as interpretation of blockade of reinforcing effects generally, is the extent to which the blockade is specific to the drug target and not a generalized suppression of behavior, e.g., due to sedative-motor effects inhibiting the ability of the monkey to press the lever. Another possible confounding factor that would potentially result in blockade of drug taking is general sickness or perceptual alterations. In particular, appetite suppression would represent an undesirable side effect in a benzodiazepine addiction pharmacotherapy.\nTo further evaluate the extent to which attenuation of responding was due to pharmacological antagonism and to evaluate an exemplary range of effective doses, we evaluated single doses of TPA023B administered prior to sessions in which differing doses of midazolam were tested."}}, "note": "“Also recorded” adds a separate entry of the source. Marks after values point to notes of the source that are not given here."}
{"molecule": "Cc1nnc2n1-c1ccc(Cl)cc1C(c1ccccc1)=NC2", "note": "[Alprazolam, alprazolam]", "values": [{"measurement": "Significant behavioral effects: Decrease", "setting": "[1]", "result": "Exploration; also recorded: Passive Visual, Tactile/Oral"}, {"measurement": "Significant behavioral effects: Increase", "setting": "[1]", "result": "Sedation, Deep Sedation,; also recorded: Observable Ataxia; also recorded: Rest/Sleep Posture, Moderate"}, {"measurement": "Non-Suppressed, Mean responses/s (SEM)", "setting": "[2]; 0.03 mg/kg", "result": "1.8 (0.31) responses/s"}, {"measurement": "Suppressed, Mean responses/s (SEM)", "setting": "[2]; 0.03 mg/kg", "result": "1.9 (0.10)* responses/s"}, {"measurement": "effect on non-suppressed responding", "setting": "[2]; 0.3 mg/kg", "result": "markedly attenuated"}, {"measurement": "Non-Suppressed, Mean responses/s (SEM)", "setting": "[2]; 0.3 mg/kg", "result": "0.18 (0.09)* responses/s"}, {"measurement": "Suppressed, Mean responses/s (SEM)", "setting": "[2]; 0.3 mg/kg", "result": "0.10 (0.10) responses/s"}, {"measurement": "breathing frequency", "setting": "[3]", "result": "significantly reduced"}, {"measurement": "minute volume", "setting": "[3]", "result": "significantly reduced"}]}
{"molecule": "Cn1ncnc1COc1nn2c(-c3cc(F)ccc3F)nnc2cc1C(C)(C)C", "note": "[L-838,417]", "values": [{"measurement": "PK", "setting": "[4]", "result": "Poor"}, {"measurement": "Pharmacokinetics", "setting": "[4]", "result": "poor"}, {"measurement": "ability of diazepam to suppress rates of responding", "setting": "[5]", "result": "blocked"}, {"measurement": "Subtype α3", "setting": "[6]", "result": "partial"}, {"measurement": "Subtype α1", "setting": "[7]", "result": "none"}, {"measurement": "efficacy at α1GABAA subtype", "setting": "[7]", "result": "antagonist; also recorded: no efficacy"}, {"measurement": "Subtype α5", "setting": "[8]", "result": "partial"}, {"measurement": "Subtype α2", "setting": "[9]", "result": "partial"}]}
{"molecule": "Cn1ncnc1COc1nn2c(-c3ccccc3)nnc2cc1C1CCC1", "note": "[MRK-067]", "values": [{"measurement": "PK", "setting": "[4]", "result": "poor"}]}
{"molecule": "Cn1ncnc1COc1nn2c(-c3ccccc3F)nnc2cc1C1CCC1", "note": "[MRK-696]", "values": [{"measurement": "Pharmacokinetics", "setting": "[4]", "result": "poor"}, {"measurement": "Subtype α3", "setting": "[6]", "result": "partial"}, {"measurement": "Subtype α1", "setting": "[7]", "result": "partial"}, {"measurement": "Subtype α5", "setting": "[8]", "result": "partial"}, {"measurement": "Subtype α2", "setting": "[9]", "result": "partial"}]}
{"molecule": "N#Cc1cc(F)ccc1-c1cc(-c2cnc3nc(C(F)(F)F)ccn23)ccc1F", "note": "[MRK-898]", "values": [{"measurement": "bioavailability", "setting": "[10]", "result": 49, "unit": "%"}, {"measurement": "half-life", "setting": "[10]", "result": 13, "unit": "h"}, {"measurement": "Pharmacokinetics", "setting": "[4]", "result": "good"}, {"measurement": "Subtype α3", "setting": "[6]", "result": "partial"}, {"measurement": "Subtype α1", "setting": "[7]", "result": "none"}, {"measurement": "efficacy at α1GABAA subtype", "setting": "[7]", "result": "antagonist"}, {"measurement": "Subtype α5", "setting": "[8]", "result": "none"}, {"measurement": "efficacy at α5GABAA subtype", "setting": "[8]", "result": "antagonist"}, {"measurement": "Subtype α2", "setting": "[9]", "result": "partial"}]}
{"molecule": "CN1C(=O)CN=C(c2ccccc2)c2cc(Cl)ccc21", "note": "[diazepam]", "values": [{"measurement": "mean rates of responding (percent of baseline control), ligand alone", "setting": "[11]; N=8 rats, FIGS. 10A to 10C", "result": "significantly decreased"}, {"measurement": "effect on rates of responding", "setting": "[11]; 30 min pre-treatment", "result": "most robust effects"}, {"measurement": "effect on rates of responding", "setting": "[11]; 60 min pre-treatment", "result": "no effects"}]}
{"molecule": "CCOC(=O)c1ncn2c1CN(C)C(=O)c1cc(F)ccc1-2", "note": "[flumazenil, reference compound]", "values": [{"measurement": "rates of responding 60 min after 3.0 mg/kg diazepam (precipitated withdrawal)", "setting": "[12]; all doses tested, vs ligand alone, FIGS. 11A and 11B", "result": "robustly suppressed responding"}, {"measurement": "rates of responding after 60-min pretreatment of diazepam (acute dependence)", "setting": "[12]; ligand 3.0 mg/kg, FIG. 12B, N=5", "result": "significant decrease"}, {"measurement": "ability of diazepam to suppress rates of responding", "setting": "[5]", "result": "blocked"}]}
{"molecule": "Cc1ncc2n1-c1ccc(Cl)cc1C(c1ccccc1F)=NC2", "note": "[midazolam, reference compound]", "values": [{"measurement": "dose showing maximal self-administration", "setting": "[13]", "result": 0.018, "unit": "mg/kg/injection"}]}
{"molecule": "MRK-409", "values": [{"measurement": "Pharmacokinetics", "setting": "[4]", "result": "good"}, {"measurement": "Subtype α3", "setting": "[6]", "result": "partial"}, {"measurement": "Subtype α1", "setting": "[7]", "result": "partial"}, {"measurement": "Subtype α5", "setting": "[8]", "result": "partial"}, {"measurement": "Subtype α2", "setting": "[9]", "result": "partial"}]}
